Laboratory results published in US9315463B2, “Cyclohexylamine derivatives having β2 adrenergic agonist and M3 muscarinic antagonist activities” (Almirall, S.A., priority 2010, dated 2016).
Where two headings read alike, the source gives them in different places.

Assays:
[1] = biological target: human adrenergic beta2 receptor (Homo sapiens (Human), UniProt P07550); experiment: Human adrenergic β2 receptor binding assay (3H-CGP12177, Sf9 membranes)
Description: Test 1: Human Adrenergic β1 and β2 Receptor Binding Assays
The study of binding to human adrenergic beta1 and beta2 receptors was performed using commercial membranes prepared from Sf9 cells where they are overexpressed (Perkin Elmer). The membrane suspensions (16 μg/well for beta1 and 5 μg/well for beta2) in assay buffer (75 mM Tris/HCl with 12.5 mM MgCl2 and 2 mM EDTA pH=7.4) were incubated with 0.14 or 0.6 nM of 3H-CGP12177 (Amersham) for beta 1 and beta 2 receptors respectively in a final volume of 250 μl, in GFC Multiscreen 96 well plates (Millipore) previously treated with assay buffer containing 0.3% PEI (Sigma). Non specific binding was measured in the presence of 1 μM propanolol. Incubation was maintained for 60 minutes at room temperature and with gentle shaking. The binding reactions were terminated by filtration and washing with 2.5 volumes of Tris/HCl 50 mM pH=7.4. The affinity of each test compound to the receptor was determined by using ten different concentrations ran in duplicate. IC50s were calculated using Activity Base software from IDBS and the four parameters-log equation.

[2] = biological target: human muscarinic M3 receptor (Homo sapiens (Human), UniProt P20309); experiment: Human muscarinic M3 receptor binding assay ([3H]-NMS, CHO-K1 membranes)
Chain of human muscarinic M3 receptor (P20309 whole entry): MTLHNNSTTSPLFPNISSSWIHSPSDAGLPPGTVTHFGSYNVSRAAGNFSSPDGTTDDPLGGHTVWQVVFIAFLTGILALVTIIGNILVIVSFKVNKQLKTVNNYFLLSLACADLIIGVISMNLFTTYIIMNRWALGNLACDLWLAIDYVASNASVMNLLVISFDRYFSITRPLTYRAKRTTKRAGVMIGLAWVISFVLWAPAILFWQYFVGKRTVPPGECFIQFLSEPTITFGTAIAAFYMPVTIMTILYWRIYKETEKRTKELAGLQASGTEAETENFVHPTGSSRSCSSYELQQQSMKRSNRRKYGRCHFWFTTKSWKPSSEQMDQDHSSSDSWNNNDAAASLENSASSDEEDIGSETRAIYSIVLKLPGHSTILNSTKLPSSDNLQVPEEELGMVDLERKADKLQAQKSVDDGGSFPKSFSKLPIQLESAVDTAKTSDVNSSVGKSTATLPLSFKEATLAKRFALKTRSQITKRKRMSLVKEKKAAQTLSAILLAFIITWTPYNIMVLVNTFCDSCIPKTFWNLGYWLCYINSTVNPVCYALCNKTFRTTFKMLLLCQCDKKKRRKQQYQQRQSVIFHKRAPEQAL
Description: Test 2: Human Muscarinic M1, M2, M3, M4 and M5Receptors Binding Assays
The study of binding to human muscarinic M1, M2, M3, M4 and M5 receptors was performed using commercial membranes (Perkin Elmer) prepared from CHO-K1 cells. Radioligand binding experiments were conducted in 96 polypropylene well plates in a total volume of 200 μl. All reagents were dissolved in assay binding buffer (PBS with calcium and magnesium, SIGMA), except compounds that were dissolved in DMSO 100%. Non-specific binding (NSB) was measured in the presence of 1 μM atropine. [3H]-NMS was used as the radioligand at a concentration of 1 nM for M2, M3 and M5 and 0.3 nM for M1 and M4. [3H]-NMS and antagonists were incubated with membranes that express human muscarinic receptors M1, M2, M3, M4 and M5 at concentrations of 8.1, 10, 4.9, 4.5 and 4.9 μg/well, respectively.
After an incubation period of two hours with gentle shaking, 150 μl of the reaction mix were transferred to 96 GF/C filter plates (Millipore), previously treated with wash buffer (Tris 50 mM; NaCl 100 mM; pH: 7.4), containing 0.05% PEI (Sigma) during one hour. Bound and free [3H]-NMS were separated by rapid vacuum filtration in a manifold from Millipore and washed four times with ice cold wash buffer. After drying 30 min, 30 μl of OPTIPHASE Supermix were added to each well and radioactivity quantified using a Microbeta microplate scintillation counter.
The affinity of each test compound to the receptors was determined by using ten different concentrations ran in duplicate. IC50s were calculated using Activity Base software from IDBS and the four parameters-log equation.

[3] = 3H-CGP12177 displacement, read-out: Binding IC50, nM β2
[4] = [3H]-NMS displacement, read-out: Binding IC50, nM M3

Chain of human adrenergic beta2 receptor (P07550 whole entry): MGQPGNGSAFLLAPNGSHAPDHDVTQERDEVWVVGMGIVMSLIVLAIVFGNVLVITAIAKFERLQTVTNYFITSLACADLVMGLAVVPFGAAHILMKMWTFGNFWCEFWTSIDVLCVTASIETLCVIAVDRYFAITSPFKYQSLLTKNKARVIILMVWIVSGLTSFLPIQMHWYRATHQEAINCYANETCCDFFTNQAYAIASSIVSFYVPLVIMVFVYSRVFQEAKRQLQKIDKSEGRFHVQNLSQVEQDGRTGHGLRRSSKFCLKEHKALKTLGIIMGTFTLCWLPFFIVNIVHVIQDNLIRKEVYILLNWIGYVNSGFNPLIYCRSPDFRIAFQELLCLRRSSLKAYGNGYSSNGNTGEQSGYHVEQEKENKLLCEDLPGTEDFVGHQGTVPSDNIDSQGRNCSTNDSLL

Row | Structure (SMILES) | IC50 ([1]; read-out: Binding IC50, nM β2, 3H-CGP12177 displacement) [nM] | IC50 ([2]; read-out: Binding IC50, nM M3, [3H]-NMS displacement) [nM] | IC50 [1, 3] [nM] | IC50 [2, 4] [nM]
1 | CN(CCCCCCCCCNC[C@H](O)c1ccc(O)c2[nH]c(=O)ccc12)C1CCC(OC(=O)C(O)(c2cccs2)c2cccs2)CC1 (stereo partly drawn) [Example 1, trans-4-[(9-{[(2R)-2-hydroxy-2-(8-hydroxy-2-oxo-1,2-dihydroquinolin-5-yl)ethyl]-amino}nonyl)(methyl)amino]cyclohexyl hydroxy(di-2-thienyl)acetate formiate (2:1)] | 6.4 | 0.2 |  | 
2 | COc1cc(NC(=O)OCCN(C)[C@H]2CC[C@H](OC(=O)C(O)(c3cccs3)c3cccs3)CC2)c(Cl)cc1CNC[C@H](O)c1ccc(O)c2[nH]c(=O)ccc12 [Example 12, trans-4-[{2-[({[2-chloro-4-({[(2R)-2-hydroxy-2-(8-hydroxy-2-oxo-1,2-dihydroquinolin-5-yl)ethyl]amino}methyl)-5-methoxyphenyl]amino}carbonyl)oxy]ethyl}-(methyl)amino]cyclohexyl hydroxy(di-2-thienyl)acetate hydrofluoride] |  |  | 1.6 | 1.6
3 | COc1cc(NC(=O)CCN(C)[C@H]2CC[C@](C)(OC(=O)C(O)(c3cccs3)c3cccs3)CC2)c(Cl)cc1CNC[C@H](O)c1ccc(O)c2[nH]c(=O)ccc12 [Example 13, trans-4-[(3-{[2-chloro-4-({[(2R)-2-hydroxy-2-(8-hydroxy-2-oxo-1,2-dihydroquinolin-5-yl)ethyl]amino}methyl)-5-methoxyphenyl]amino}-3-oxopropyl)(methyl)amino]-1-methylcyclohexyl hydroxy(di-2-thienyl)acetate] |  |  | 2.2 | 2.1
4 | COc1cc(NC(=O)CCN(C)[C@H]2CC[C@H](OC(=O)C(O)(c3cccs3)c3cccs3)CC2)c(F)cc1CNC[C@H](O)c1ccc(O)c2[nH]c(=O)ccc12 [Example 16, trans-4-[(3-{[2-fluoro-4-({[(2R)-2-hydroxy-2-(8-hydroxy-2-oxo-1,2-dihydroquinolin-5-yl)ethyl]amino}methyl)-5-methoxyphenyl]amino}-3-oxopropyl)(methyl)amino]-cyclohexyl hydroxy(di-2-thienyl)acetate] |  |  | 4.8 | 2
5 | CN(CCC(=O)Nc1cc(F)c(CNC[C@H](O)c2ccc(O)c3[nH]c(=O)ccc23)cc1F)[C@H]1CC[C@H](OC(=O)C(O)(c2cccs2)c2cccs2)CC1 [Example 18, trans-4-[(3-{[2,5-difluoro-4-({[(2R)-2-hydroxy-2-(8-hydroxy-2-oxo-1,2-dihydroquinolin-5-yl)ethyl]amino}methyl)phenyl]amino}-3-oxopropyl)-(methyl)amino]cyclohexyl hydroxy(di-2-thienyl)acetate hydrofluoride (1:2)] |  |  | 13 | 1.6
6 | COc1cc(NC(=O)CCN(C)[C@H]2CC[C@H](OC(=O)C(O)(c3cccs3)c3cccs3)CC2)c(Cl)cc1CCNC[C@H](O)c1ccc(O)c2[nH]c(=O)ccc12 [Example 20, trans-4-[(3-{[2-chloro-4-(2-{[(2R)-2-hydroxy-2-(8-hydroxy-2-oxo-1,2-dihydroquinolin-5-yl)ethyl]amino}ethyl)-5-methoxyphenyl]amino}-3-oxopropyl)-(methyl)amino]cyclohexyl hydroxy(di-2-thienyl)acetate hydrofluoride (1:2)] |  |  | 5.3 | 0.7
7 | COc1cc(NC(=O)OCCN(C)[C@H]2CC[C@H](OC(=O)C(O)(c3cccs3)c3cccs3)CC2)c(C#N)cc1CNC[C@H](O)c1ccc(O)c2[nH]c(=O)ccc12 [Example 22, trans-4-[{2-[({[2-cyano-4-({[(2R)-2-hydroxy-2-(8-hydroxy-2-oxo-1,2-dihydroquinolin-5-yl)ethyl]amino}methyl)-5-methoxyphenyl]amino}carbonyl)-oxy]ethyl}(methyl)amino]cyclohexyl hydroxy(di-2-thienyl)acetate hydrofluoride (1:2)] |  |  | 4.5 | 1.4
8 | COc1cc(OCCCCN(C)[C@H]2CC[C@H](OC(=O)C(O)(c3cccs3)c3cccs3)CC2)c(Cl)cc1CNC[C@H](O)c1ccc(O)c2[nH]c(=O)ccc12 [Example 25, trans-4-[{4-[2-chloro-4-({[(2R)-2-hydroxy-2-(8-hydroxy-2-oxo-1,2-dihydroquinolin-5-yl)ethyl]amino}methyl)-5-methoxyphenoxy]butyl}(methyl)amino]cyclohexyl hydroxy(di-2-thienyl)acetate hydrofluoride (1:2)] |  |  | 9.6 | 0.3
9 | COc1cc(NC(=O)OCCN(C)[C@H]2CC[C@H](OC(=O)C(O)(c3cccs3)c3cccs3)CC2)c(Cl)cc1CNC[C@H](O)c1ccc(O)c2c1OCC(=O)N2 [Example 26, trans-4-[{2-[({[2-chloro-4-({[(2R)-2-hydroxy-2-(5-hydroxy-3-oxo-3,4-dihydro-2H-1,4-benzoxazin-8-yl)ethyl]amino}methyl)-5-methoxyphenyl]amino}carbonyl)-oxy]ethyl}(methyl)amino]cyclohexyl hydroxy(di-2-thienyl)acetate] |  |  | 0.38 | 1.7
10 | COc1cc(NC(=O)OCCN(C)[C@H]2CC[C@H](OC(=O)[C@](O)(c3ccccc3)C3CCCC3)CC2)c(Cl)cc1CNC[C@H](O)c1ccc(O)c2[nH]c(=O)ccc12 [Example 28, trans-4-[{2-[({[2-chloro-4-({[(2R)-2-hydroxy-2-(8-hydroxy-2-oxo-1,2-dihydroquinolin-5-yl)ethyl]amino}methyl)-5-methoxyphenyl]amino}carbonyl)oxy]ethyl}-(methyl)amino]cyclohexyl (2R)-cyclopentyl (hydroxy)phenylacetate] |  |  | 1.3 | 8.5
11 | COc1cc(NC(=O)OCCN(C)[C@H]2CC[C@H](OC(=O)[C@](O)(c3cccs3)C3CCCC3)CC2)c(Cl)cc1CNC[C@H](O)c1ccc(O)c2[nH]c(=O)ccc12 [Example 29, trans-4-[{2-[({[2-chloro-4-({[(2R)-2-hydroxy-2-(8-hydroxy-2-oxo-1,2-dihydroquinolin-5-yl)ethyl]amino}methyl)-5-methoxyphenyl]amino}carbonyl)-oxy]ethyl}(methyl)amino]cyclohexyl (2S)-cyclopentyl(hydroxy)-2-thienylacetate] |  |  | 1.1 | 3.8
